Results from US20200360352A1, “USE OF RIFAMYCIN-NITROIMIDAZOLE COUPLING MOLECULE” (priority 2019, published 2020).
Converted amounts (≈) assume the structure as drawn. Where two headings read alike, the source gives them in different places.

Assays:
Format in all cases: cell-based
Mycobacterium kansasii [1] = assay: MBC, plating of MIC wells and CFU count; conditions: read-out: Minimum Bactericidal Concentration (MBC)
Mycobacterium abscessus [2] = assay: MBC, plating of MIC wells and CFU count; conditions: Mycobacteroides abscessus, read-out: Minimum Bactericidal Concentration (MBC)
Mycobacterium avium [3] = assay: MBC, plating of MIC wells and CFU count; conditions: read-out: Minimum Bactericidal Concentration (MBC)
Mycobacterium abscessus [4] = assay: MIC, micro broth dilution with resazurin readout; conditions: Mycobacteroides abscessus, read-out: Minimum Inhibitory Concentration (MIC)
Mycobacterium avium [5] = assay: MIC, micro broth dilution with resazurin readout; conditions: read-out: Minimum Inhibitory Concentration (MIC)
Mycobacterium kansasii [6] = assay: MIC, micro broth dilution with resazurin readout; conditions: read-out: Minimum Inhibitory Concentration (MIC)
Mycodacterium chelonei = assay: MIC, micro broth dilution with resazurin readout; conditions: MH Culture Medium; Chelonei (standard strain); read-out: Minimum Inhibitory Concentration (MIC)
[7] = test system: Mycobacterium intracellulare; assay: MIC, micro broth dilution with resazurin readout; conditions: MH Culture Medium, read-out: Minimum Inhibitory Concentration (MIC)
[8] = test system: Mycobacterium massiliense; assay: MIC, micro broth dilution with resazurin readout; conditions: Mycobacteroides abscessus, MH Culture Medium, read-out: Minimum Inhibitory Concentration (MIC)
Mycobacterium fortuitum = assay: MIC, micro broth dilution with resazurin readout; conditions: Mycolicibacterium fortuitum, MH Culture Medium, read-out: Minimum Inhibitory Concentration (MIC)
[9] = 7H9 Broth, Mycobacterium avium Smooth
[10] = MH Broth, Mycobacterium avium Smooth
[11] = 7H9 Broth, Mycobacterium avium Rough
[12] = MH Broth, Mycobacterium avium Rough

## O=C(O)c1cn(C2CC2)c2cc(N3CCNCC3)c(F)cc2c1=O [Ciprofloxacin]
Mycobacterium kansasii [1]; 7H9 Broth
  MBC: > 64 µg/mL
Mycobacterium kansasii [1]; MH Broth
  MBC: > 64 µg/mL
Mycobacterium abscessus [2]; 7H9 Broth
  MBC: > 64 µg/mL
Mycobacterium abscessus [2]; MH Broth
  MBC: > 64 µg/mL
Mycobacterium avium [3]; [9]
  MBC: > 64 µg/mL
Mycobacterium avium [3]; [10]
  MBC: > 64 µg/mL
Mycobacterium abscessus [4]; 7H9 Broth
  MIC: 16 µg/mL (≈ 48.3 µM)
Mycobacterium abscessus [4]; MH Broth
  MIC: > 64 µg/mL
Mycobacterium avium [5]; [9]
  MIC: > 64 µg/mL
Mycobacterium avium [5]; [10]
  MIC: > 64 µg/mL
Mycobacterium kansasii [6]; 7H9 Broth
  MIC: > 64 µg/mL
Mycobacterium kansasii [6]; MH Broth
  MIC: > 64 µg/mL

## CO[C@H]1/C=C/O[C@@]2(C)Oc3c(C)c(O)c4c(c3C2=O)C2=NC3(CCN(CC(C)C)CC3)NC2=C(NC(=O)/C(C)=C\C=C\[C@H](C)[C@H](O)[C@@H](C)[C@@H](O)[C@@H](C)[C@H](OC(C)=O)[C@@H]1C)C4=O [Rifabutin]
Mycodacterium chelonei
  MIC: 64 µg/mL (≈ 75.6 µM)
[7]; Intracellulare (standard strain)
  MIC: 0.0625 µg/mL (≈ 0.0738 µM)
[7]; clinically isolated strain Intracellulare (S90)
  MIC: 0.125 µg/mL (≈ 0.148 µM)
[7]; clinically isolated strain Intracellulare (S261)
  MIC: 0.25 µg/mL (≈ 0.295 µM)
[7]; clinically isolated strain Intracellulare (S269)
  MIC: 0.0625 µg/mL (≈ 0.0738 µM)
[7]; clinically isolated strain Intracellulare (S290)
  MIC: 0.0625 µg/mL (≈ 0.0738 µM)
[7]; clinically isolated strain Intracellulare (S291)
  MIC: 0.0625 µg/mL (≈ 0.0738 µM)
[7]; clinically isolated strain Intracellulare (S298)
  MIC: 0.5 µg/mL (≈ 0.59 µM)
[7]; clinically isolated strain Intracellulare (S442)
  MIC: 0.0625 µg/mL (≈ 0.0738 µM)
[7]; clinically isolated strain Intracellulare (S541)
  MIC: 0.125 µg/mL (≈ 0.148 µM)
[7]; clinically isolated strain Intracellulare (S623)
  MIC: 0.25 µg/mL (≈ 0.295 µM)
[7]; clinically isolated strain Intracellulare (ZPS)
  MIC: 0.0625 µg/mL (≈ 0.0738 µM)
[8]; clinically isolated strain Massiliense (D10)
  MIC: > 64 µg/mL
[8]; clinically isolated strain Massiliense (D14)
  MIC: 64 µg/mL (≈ 75.6 µM)
[8]; clinically isolated strain Massiliense (D18)
  MIC: 64 µg/mL (≈ 75.6 µM)
Mycobacterium avium [5]; MH Culture Medium, Avium (standard strain)
  MIC: 0.0625 µg/mL (≈ 0.0738 µM)
Mycobacterium avium [5]; MH Culture Medium, clinically isolated strain Avium (S31)
  MIC: 0.0625 µg/mL (≈ 0.0738 µM)
Mycobacterium avium [5]; MH Culture Medium, clinically isolated strain Avium (S123)
  MIC: 0.0625 µg/mL (≈ 0.0738 µM)
Mycobacterium avium [5]; MH Culture Medium, clinically isolated strain Avium (S559)
  MIC: 0.0625 µg/mL (≈ 0.0738 µM)
Mycobacterium avium [5]; MH Culture Medium, clinically isolated strain Avium (S568)
  MIC: 0.0625 µg/mL (≈ 0.0738 µM)
Mycobacterium avium [5]; MH Culture Medium, clinically isolated strain Avium (S577)
  MIC: 0.0625 µg/mL (≈ 0.0738 µM)
Mycobacterium avium [5]; MH Culture Medium, clinically isolated strain Avium (S597)
  MIC: 0.0625 µg/mL (≈ 0.0738 µM)
Mycobacterium avium [5]; MH Culture Medium, clinically isolated strain Avium (S602)
  MIC: 0.0625 µg/mL (≈ 0.0738 µM)
Mycobacterium kansasii [6]; MH Culture Medium, Kansasii (standard strain)
  MIC: 0.0625 µg/mL (≈ 0.0738 µM)
Mycobacterium kansasii [6]; MH Culture Medium, clinically isolated strain Kansasii (S9)
  MIC: 0.0625 µg/mL (≈ 0.0738 µM)
Mycobacterium kansasii [6]; MH Culture Medium, clinically isolated strain Kansasii (S199)
  MIC: 0.0625 µg/mL (≈ 0.0738 µM)
Mycobacterium kansasii [6]; MH Culture Medium, clinically isolated strain Kansasii (S520)
  MIC: 0.0625 µg/mL (≈ 0.0738 µM)
Mycobacterium kansasii [6]; MH Culture Medium, clinically isolated strain Kansasii (S609)
  MIC: 0.0625 µg/mL (≈ 0.0738 µM)
Mycobacterium fortuitum; Fortuitum (standard strain)
  MIC: 4 µg/mL (≈ 4.72 µM)
Mycobacterium fortuitum; clinically isolated strain Fortuitum (S103)
  MIC: 32 µg/mL (≈ 37.8 µM)
Mycobacterium fortuitum; clinically isolated strain Fortuitum (S111)
  MIC: 4 µg/mL (≈ 4.72 µM)

## NCC[C@H](O)C(=O)N[C@@H]1C[C@H](N)[C@@H](O[C@H]2O[C@H](CN)[C@@H](O)[C@H](O)[C@H]2O)[C@H](O)[C@H]1O[C@H]1O[C@H](CO)[C@@H](O)[C@H](N)[C@H]1O [Amikacin]
Mycobacterium kansasii [1]; 7H9 Broth
  MBC: 64 µg/mL (≈ 109 µM)
Mycobacterium kansasii [1]; MH Broth
  MBC: > 64 µg/mL
Mycobacterium abscessus [2]; 7H9 Broth
  MBC: > 64 µg/mL
Mycobacterium abscessus [2]; MH Broth
  MBC: > 64 µg/mL
Mycobacterium avium [3]; [11]
  MBC: > 64 µg/mL
Mycobacterium avium [3]; [9]
  MBC: > 64 µg/mL
Mycobacterium avium [3]; [12]
  MBC: > 64 µg/mL
Mycobacterium avium [3]; [10]
  MBC: > 64 µg/mL
Mycobacterium abscessus [4]; 7H9 Broth
  MIC: 32 µg/mL (≈ 54.6 µM)
Mycobacterium abscessus [4]; MH Broth
  MIC: 16 µg/mL (≈ 27.3 µM)
Mycobacterium avium [5]; [11]
  MIC: > 64 µg/mL
Mycobacterium avium [5]; [9]
  MIC: 2 µg/mL (≈ 3.42 µM)
Mycobacterium avium [5]; [12]
  MIC: 2 µg/mL (≈ 3.42 µM)
Mycobacterium avium [5]; [10]
  MIC: 2 µg/mL (≈ 3.42 µM)
Mycobacterium kansasii [6]; 7H9 Broth
  MIC: 16 µg/mL (≈ 27.3 µM)
Mycobacterium kansasii [6]; MH Broth
  MIC: 1 µg/mL (≈ 1.71 µM)
